Values quoted from earlier work as cited in patent US6645508B1, “Stable L-ascorbic acid composition” (priority 1999, dated 2003).

System: human skin fibroblasts
Details: at concentrations equivalent to L-Ascorbic acid

Q: For `CCCCCCCCCCCCCCCC(=O)OC[C@H](O)[C@H]1OC(=O)C(O)=C1O` [ascorbyl palmitate], which “effect on human skin fibroblasts” value is on record?
A: killed human skin fibroblasts
